# Measurements reported in the supplement of paper PMC10307832.
# Assays:
# Test in all cases: relative viability (nuclei count vs DMSO), 5 days (fraction); higher = more cells survive
# Omipalisib = compound: COc1ncc(-c2ccc3nccc(-c4ccnnc4)c3c2)cc1NS(=O)(=O)c1ccc(F)cc1F [Omipalisib]
# In short: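 Acceptance criteria were a control CV below 25% and at least one doubling per plate. Lung cancer cell lines in 1536-well plates got five library-drug doses (not always all listed) √10 apart by pinning and were left 5 days with no medium change. Viability divides treated-well nuclei by vehicle-well nuclei and is the median across plates. Nuclei were counted by MetaXpress from 4× Hoechst images.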
# Omipalisib + Tozasertib = compound: COc1ncc(-c2ccc3nccc(-c4ccnnc4)c3c2)cc1NS(=O)(=O)c1ccc(F)cc1F [Omipalisib] + Cc1cc(Nc2cc(N3CCN(C)CC3)nc(Sc3ccc(NC(=O)C4CC4)cc3)n2)n[nH]1 [Tozasertib] (partner 0.1 µM)
# In short: (§1)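 One day after seeding in 1536-well plates, lung cancer cell lines were dosed by pin tool. Dosing was either single-drug or a fixed anchor-drug dose plus five library-drug doses (not always all listed) in √10 steps. After 5 days, nuclei were stained in one fix-and-stain step and counted on 4× images, and relative viability is the nuclei count of treated wells over that of vehicle wells, given as the median of duplicate plates.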
# Omipalisib + Olaparib = compound: COc1ncc(-c2ccc3nccc(-c4ccnnc4)c3c2)cc1NS(=O)(=O)c1ccc(F)cc1F [Omipalisib] + O=C(c1cc(Cc2n[nH]c(=O)c3ccccc23)ccc1F)N1CCN(C(=O)C2CC2)CC1 [Olaparib] (partner 8 µM)
# In short: as §1
# Omipalisib + Decitabine = compound: COc1ncc(-c2ccc3nccc(-c4ccnnc4)c3c2)cc1NS(=O)(=O)c1ccc(F)cc1F [Omipalisib] + Nc1ncn([C@H]2C[C@H](O)[C@@H](CO)O2)c(=O)n1 [Decitabine] (partner 2 µM)
# In short: as §1
# Omipalisib + AZD7762 = compound: COc1ncc(-c2ccc3nccc(-c4ccnnc4)c3c2)cc1NS(=O)(=O)c1ccc(F)cc1F [Omipalisib] + NC(=O)Nc1cc(-c2cccc(F)c2)sc1C(=O)N[C@H]1CCCNC1 [AZD7762] (partner 0.2 µM)
# In short: as §1
# Omipalisib + Pemetrexed = compound: COc1ncc(-c2ccc3nccc(-c4ccnnc4)c3c2)cc1NS(=O)(=O)c1ccc(F)cc1F [Omipalisib] + Nc1nc2[nH]cc(CCc3ccc(C(=O)N[C@@H](CCC(=O)O)C(=O)O)cc3)c2c(=O)[nH]1 [Pemetrexed] (partner 0.2 µM)
# In short: as §1
# Omipalisib + Palbociclib = compound: COc1ncc(-c2ccc3nccc(-c4ccnnc4)c3c2)cc1NS(=O)(=O)c1ccc(F)cc1F [Omipalisib] + CC(=O)c1c(C)c2cnc(Nc3ccc(N4CCNCC4)cn3)nc2n(C2CCCC2)c1=O [Palbociclib] (partner 0.5 µM)
# In short: as §1
# Omipalisib + Trametinib = compound: COc1ncc(-c2ccc3nccc(-c4ccnnc4)c3c2)cc1NS(=O)(=O)c1ccc(F)cc1F [Omipalisib] + CC(=O)Nc1cccc(-n2c(=O)n(C3CC3)c(=O)c3c(Nc4ccc(I)cc4F)n(C)c(=O)c(C)c32)c1 [Trametinib] (partner 0.02 µM)
# In short: as §1
# Omipalisib + Vorinostat = compound: COc1ncc(-c2ccc3nccc(-c4ccnnc4)c3c2)cc1NS(=O)(=O)c1ccc(F)cc1F [Omipalisib] + O=C(CCCCCCC(=O)Nc1ccccc1)NO [Vorinostat] (partner 1 µM)
# In short: as §1
# Omipalisib + OSI-027 = compound: COc1ncc(-c2ccc3nccc(-c4ccnnc4)c3c2)cc1NS(=O)(=O)c1ccc(F)cc1F [Omipalisib] + COc1cccc2cc(-c3nc([C@H]4CC[C@H](C(=O)O)CC4)n4ncnc(N)c34)[nH]c12 [OSI-027] (partner 0.5 µM)
# In short: as §1
# Omipalisib + Phenformin = compound: COc1ncc(-c2ccc3nccc(-c4ccnnc4)c3c2)cc1NS(=O)(=O)c1ccc(F)cc1F [Omipalisib] + N=C(N)NC(=N)NCCc1ccccc1 [Phenformin] (partner 250 µM)
# In short: as §1
# Omipalisib + Lapatinib = compound: COc1ncc(-c2ccc3nccc(-c4ccnnc4)c3c2)cc1NS(=O)(=O)c1ccc(F)cc1F [Omipalisib] + CS(=O)(=O)CCNCc1ccc(-c2ccc3ncnc(Nc4ccc(OCc5cccc(F)c5)c(Cl)c4)c3c2)o1 [Lapatinib] (partner 2 µM)
# In short: as §1
# Omipalisib + Crizotinib = compound: COc1ncc(-c2ccc3nccc(-c4ccnnc4)c3c2)cc1NS(=O)(=O)c1ccc(F)cc1F [Omipalisib] + C[C@@H](Oc1cc(-c2cnn(C3CCNCC3)c2)cnc1N)c1c(Cl)ccc(F)c1Cl [Crizotinib] (partner 1 µM)
# In short: as §1
# Omipalisib + Navitoclax = compound: COc1ncc(-c2ccc3nccc(-c4ccnnc4)c3c2)cc1NS(=O)(=O)c1ccc(F)cc1F [Omipalisib] + CC1(C)CCC(c2ccc(Cl)cc2)=C(CN2CCN(c3ccc(C(=O)NS(=O)(=O)c4ccc(N[C@H](CCN5CCOCC5)CSc5ccccc5)c(S(=O)(=O)C(F)(F)F)c4)cc3)CC2)C1 [Navitoclax] (partner 0.5 µM)
# In short: as §1
# Omipalisib + Foretinib = compound: COc1ncc(-c2ccc3nccc(-c4ccnnc4)c3c2)cc1NS(=O)(=O)c1ccc(F)cc1F [Omipalisib] + COc1cc2c(Oc3ccc(NC(=O)C4(C(=O)Nc5ccc(F)cc5)CC4)cc3F)ccnc2cc1OCCCN1CCOCC1 [Foretinib] (partner 0.25 µM)
# In short: as §1
# Omipalisib + Linsitinib = compound: COc1ncc(-c2ccc3nccc(-c4ccnnc4)c3c2)cc1NS(=O)(=O)c1ccc(F)cc1F [Omipalisib] + C[C@]1(O)C[C@@H](c2nc(-c3ccc4ccc(-c5ccccc5)nc4c3)c3c(N)nccn32)C1 [Linsitinib] (partner 1 µM)
# In short: as §1
# Omipalisib + Alpelisib = compound: COc1ncc(-c2ccc3nccc(-c4ccnnc4)c3c2)cc1NS(=O)(=O)c1ccc(F)cc1F [Omipalisib] + Cc1nc(NC(=O)N2CCC[C@H]2C(N)=O)sc1-c1ccnc(C(C)(C)C(F)(F)F)c1 [Alpelisib] (partner 2 µM)
# In short: as §1
# Omipalisib + Pictilisib = compound: COc1ncc(-c2ccc3nccc(-c4ccnnc4)c3c2)cc1NS(=O)(=O)c1ccc(F)cc1F [Omipalisib] + CS(=O)(=O)N1CCN(Cc2cc3nc(-c4cccc5[nH]ncc45)nc(N4CCOCC4)c3s2)CC1 [Pictilisib] (partner 1 µM)
# In short: as §1
cell line,measurement,setting,value
NCI-H1648,relative viability,Omipalisib; 0.0003 µM,0.913
same,relative viability,Omipalisib; 0.003 µM,0.504
same,relative viability,Omipalisib; 0.03 µM,0.278
same,relative viability,Omipalisib + Tozasertib; first compound 0.0003 µM,0.322
same,relative viability,Omipalisib + Tozasertib; first compound 0.003 µM,0.408
same,relative viability,Omipalisib + Tozasertib; first compound 0.03 µM,0.184
same,relative viability,Omipalisib + Olaparib; first compound 0.0003 µM,0.384
same,relative viability,Omipalisib + Olaparib; first compound 0.003 µM,0.392
same,relative viability,Omipalisib + Olaparib; first compound 0.03 µM,0.202
same,relative viability,Omipalisib + Decitabine; first compound 0.0003 µM,0.445
same,relative viability,Omipalisib + Decitabine; first compound 0.003 µM,0.363
same,relative viability,Omipalisib + Decitabine; first compound 0.03 µM,0.356
same,relative viability,Omipalisib + AZD7762; first compound 0.0003 µM,0.644
same,relative viability,Omipalisib + AZD7762; first compound 0.003 µM,0.843
same,relative viability,Omipalisib + AZD7762; first compound 0.03 µM,0.386
same,relative viability,Omipalisib + Pemetrexed; first compound 0.0003 µM,0.754
same,relative viability,Omipalisib + Pemetrexed; first compound 0.003 µM,0.619
same,relative viability,Omipalisib + Pemetrexed; first compound 0.03 µM,0.413
same,relative viability,Omipalisib + Palbociclib; first compound 0.0003 µM,0.277
same,relative viability,Omipalisib + Palbociclib; first compound 0.003 µM,0.23
same,relative viability,Omipalisib + Palbociclib; first compound 0.03 µM,0.29
same,relative viability,Omipalisib + Trametinib; first compound 0.0003 µM,0.362
same,relative viability,Omipalisib + Trametinib; first compound 0.003 µM,0.407
same,relative viability,Omipalisib + Trametinib; first compound 0.03 µM,0.249
same,relative viability,Omipalisib + Vorinostat; first compound 0.0003 µM,0.548
same,relative viability,Omipalisib + Vorinostat; first compound 0.003 µM,0.396
same,relative viability,Omipalisib + Vorinostat; first compound 0.03 µM,0.228
same,relative viability,Omipalisib + OSI-027; first compound 0.0003 µM,0.253
same,relative viability,Omipalisib + OSI-027; first compound 0.003 µM,0.291
same,relative viability,Omipalisib + OSI-027; first compound 0.03 µM,0.26
A549,relative viability,Omipalisib; 0.0003 µM,0.923
same,relative viability,Omipalisib; 0.003 µM,0.625
same,relative viability,Omipalisib; 0.03 µM,0.323
same,relative viability,Omipalisib + Phenformin; first compound 0.0003 µM,0.157
same,relative viability,Omipalisib + Phenformin; first compound 0.003 µM,0.113
same,relative viability,Omipalisib + Phenformin; first compound 0.03 µM,0.0802
same,relative viability,Omipalisib + Olaparib; first compound 0.0003 µM,0.206
same,relative viability,Omipalisib + Olaparib; first compound 0.003 µM,0.174
same,relative viability,Omipalisib + Olaparib; first compound 0.03 µM,0.0441
same,relative viability,Omipalisib + Lapatinib; first compound 0.0003 µM,0.912
same,relative viability,Omipalisib + Lapatinib; first compound 0.003 µM,0.715
same,relative viability,Omipalisib + Lapatinib; first compound 0.03 µM,0.227
same,relative viability,Omipalisib + Decitabine; first compound 0.0003 µM,0.304
same,relative viability,Omipalisib + Decitabine; first compound 0.003 µM,0.224
same,relative viability,Omipalisib + Decitabine; first compound 0.03 µM,0.176
same,relative viability,Omipalisib + Crizotinib; first compound 0.0003 µM,0.64
same,relative viability,Omipalisib + Crizotinib; first compound 0.003 µM,0.531
same,relative viability,Omipalisib + Crizotinib; first compound 0.03 µM,0.139
same,relative viability,Omipalisib + Navitoclax; first compound 0.0003 µM,1.07
same,relative viability,Omipalisib + Navitoclax; first compound 0.003 µM,0.91
same,relative viability,Omipalisib + Navitoclax; first compound 0.03 µM,0.437
same,relative viability,Omipalisib + Foretinib; first compound 0.0003 µM,0.892
same,relative viability,Omipalisib + Foretinib; first compound 0.003 µM,0.838
same,relative viability,Omipalisib + Foretinib; first compound 0.03 µM,0.319
same,relative viability,Omipalisib + Linsitinib; first compound 0.0003 µM,0.438
same,relative viability,Omipalisib + Linsitinib; first compound 0.003 µM,0.421
same,relative viability,Omipalisib + Linsitinib; first compound 0.03 µM,0.218
same,relative viability,Omipalisib + Alpelisib; first compound 0.0003 µM,0.665
same,relative viability,Omipalisib + Alpelisib; first compound 0.003 µM,0.55
same,relative viability,Omipalisib + Alpelisib; first compound 0.03 µM,0.179
same,relative viability,Omipalisib + Pictilisib; first compound 0.0003 µM,0.457
same,relative viability,Omipalisib + Pictilisib; first compound 0.003 µM,0.454
same,relative viability,Omipalisib + Pictilisib; first compound 0.03 µM,0.254
